Assay results taken from publication PMC11178805, “Ligand-based design of [^18F]OXD-2314 for PET imaging in non-Alzheimer’s disease tauopathies” (Nature Communications, 2024).
Where “and” joins values, the source holds several entries; their conditions need not be identical. Identical values can stand only once.

Legend:
[1] = biological target: T1, 4R-tau aggregates in PSP tissue (Homo sapiens, UniProt P10636); assay: Competition binding vs [^3H]OXD-2314 in PSP tissue
T1 construct: tissue Neurodegenerative Disease Brain Bank at UCSF
Method: (§1) Fresh frozen, autopsy-confirmed human PD anterior cingulate cortex brain tissue blocks (1 cm^3) were obtained from Dr. Thomas Beach at Banner/Sun Health AZ with funding from the Michael J. Fox Foundation and contained frequent α-synuclein aggregates and no other detectable aggregated amyloid species. The frozen tissue blocks were prepared for the binding assays as previously described[47],[48], except that equal quantities of the homogenates of three AD brains (AD1-AD3, Table S1) were pooled, as were homogenates from three PSP brains (PSP1-PSP3), three CBD brains (CBD1-CBD3), three Pick’s brains (PiD1-PiD3), and 4 PD brains (PD1-PD4) in order to help minimize the inter-subject variability within the different neuropathological groups. Individual subcortical brain tissues from a PSP subject (PSP4) and a CBD subject (CBD4), as well as with the middle frontal cortex of a control subject, were prepared for the binding assays as previously described[47],[48].
(§2) The equilibrium inhibition constant (Ki) values of the unlabeled compounds were determined versus tritium-labeled radioligands using published methods.

[2] = biological target: 3R/4R-tau aggregates in AD tissue (Homo sapiens, UniProt P10636); assay: Competition binding vs [^3H]OXD-2314 in AD tissue
Method: as §1, §2

[3] = biological target: T2, norepinephrine transporter(h) (Homo sapiens, UniProt P23975); assay: In vitro pharmacology binding screen (Eurofins): norepinephrine transporter; settings: read-out: inhibition of antagonist radioligand (protriptyline) binding to norepinephrine transporter(h)
T2 construct: purchased Eurofins, France (contract screening)
Method: (§3) OXD-2314 binding to CNS receptors was calculated as a percentage of inhibition of a receptor-specific radioligand. Enzyme inhibition was calculated as the percent inhibition of baseline enzyme activity where inhibition above 50% was considered significant. […] Norepinephrine transports are expressed in low concentration throughout the brain and its relative concentration are not affected by aging or neurodegeneration. 5-lipoxygenase may be overexpressed in aging brain and play some role in neurodegeneration, which could be necessary to further investigate in vivo[42]. Off-target binding to monoamine oxidase A and B (MAO-A and MAO-B) has been seen with some tau PET radiotracers[43],[44].

MAO-B = biological target: T3, MAO-B (Homo sapiens, UniProt P27338); assay: In vitro pharmacology screen (Eurofins): MAO-B; settings: read-out: inhibition of MAO-B binding
T3 construct: purchased Eurofins, France (contract screening)
T3 sequence (P27338 1-520): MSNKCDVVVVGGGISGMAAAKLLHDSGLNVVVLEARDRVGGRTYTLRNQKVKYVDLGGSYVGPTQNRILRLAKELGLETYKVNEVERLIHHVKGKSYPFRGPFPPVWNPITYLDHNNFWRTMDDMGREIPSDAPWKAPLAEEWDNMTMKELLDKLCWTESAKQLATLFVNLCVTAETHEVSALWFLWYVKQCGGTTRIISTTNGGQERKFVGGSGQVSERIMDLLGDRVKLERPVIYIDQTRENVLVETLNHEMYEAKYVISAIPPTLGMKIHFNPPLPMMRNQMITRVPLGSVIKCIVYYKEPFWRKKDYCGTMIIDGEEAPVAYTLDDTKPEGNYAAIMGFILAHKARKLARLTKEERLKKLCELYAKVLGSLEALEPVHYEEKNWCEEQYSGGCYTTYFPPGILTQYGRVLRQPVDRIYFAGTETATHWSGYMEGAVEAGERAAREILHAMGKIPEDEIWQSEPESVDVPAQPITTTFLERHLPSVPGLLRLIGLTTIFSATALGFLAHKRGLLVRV
Method: as §3

[4] = Dynamic brain PET-CT with [^18F]OXD-2314 in rats; format: in vivo
Method: Eight rats were used in preclinical PET scans with [^18F]OXD-2314: two for dynamic brain imaging, and six for whole-body biodistribution of radioactivity and dose estimation. Another five rats were used for radiometabolite analysis in brain homogenates and blood plasma. Dynamic PET-CT imaging in healthy wild-type (wt) rats were performed following intravenous administration of [^18F]OXD-2314 (17.9 and 23.8 MBq, n = 2, one female and one male). Radioactivity reached an initial peak of 2.3 standardized uptake value (SUV) within two minutes in whole brain, followed by a steady washout of radioactivity in the brain to below 0.3 SUV at the end of the 120 min acquisition time (Fig. 4). Distribution of radioactivity was homogenous among brain regions, but with the female rat having slower clearance of radioactivity from the brain and thus higher overall brain radioactivity than the male rat.
A total of 8 healthy adult rats (Sprague-Dawley, 384 ± 56 g; 4/4 M/F) underwent PET imaging following bolus injection of [^18F]OXD-2314 (20.5 ± 4.1 MBq), with two animals (M/F) scanned for 120 min with the head in the centre of PET field-of-view (FOV) whereas six animals (3/3 M/F) scanned for 180 min at three bed positions (head-to-bottom) with 15 frames (2×15 s, 2×30 s, 2×60 s, 1×120 s, 1×180 s, 2×240 s, 2×300 s, and 3×600 s) to cover the whole body. PET images were acquired using a nanoScan™ PET/CT scanner (Mediso, Budapest, Hungary) with rats anesthetized under isoflurane in O2 (1.5–2%, 1 L/min) throughout the imaging session and monitored closely for body temperature and respiration rate. […] Normalized cumulated activities of each organ were calculated using trapezoidal integration of the area under the TACs plus extrapolation of the TAC to infinity with natural decay of the radiotracer. […] SUV were calculated by normalizing regional radioactivity for injected radioactivity and body weight.

T2 sequence (P23975 whole entry): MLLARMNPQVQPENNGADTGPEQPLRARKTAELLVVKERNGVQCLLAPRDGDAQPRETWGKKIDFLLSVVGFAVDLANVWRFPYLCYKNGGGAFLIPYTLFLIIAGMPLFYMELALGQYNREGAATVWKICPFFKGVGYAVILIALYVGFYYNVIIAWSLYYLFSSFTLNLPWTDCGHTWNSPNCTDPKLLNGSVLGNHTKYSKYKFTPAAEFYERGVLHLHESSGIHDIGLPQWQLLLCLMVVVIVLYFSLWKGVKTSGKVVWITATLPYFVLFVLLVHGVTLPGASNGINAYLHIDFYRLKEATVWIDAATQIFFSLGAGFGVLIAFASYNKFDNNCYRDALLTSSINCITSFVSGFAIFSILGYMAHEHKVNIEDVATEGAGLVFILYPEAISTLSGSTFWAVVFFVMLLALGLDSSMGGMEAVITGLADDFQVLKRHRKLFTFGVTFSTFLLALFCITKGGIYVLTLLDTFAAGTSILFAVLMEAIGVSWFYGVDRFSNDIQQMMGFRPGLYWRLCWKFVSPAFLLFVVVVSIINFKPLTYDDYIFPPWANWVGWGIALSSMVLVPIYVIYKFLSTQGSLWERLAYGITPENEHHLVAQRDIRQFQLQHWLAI
Sequence of 3R/4R-tau aggregates in AD tissue (P10636 623-758 limits assumed): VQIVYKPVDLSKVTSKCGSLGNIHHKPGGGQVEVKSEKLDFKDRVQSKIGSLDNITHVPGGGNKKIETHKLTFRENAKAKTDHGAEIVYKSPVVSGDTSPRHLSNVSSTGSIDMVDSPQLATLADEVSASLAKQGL
T1 sequence (P10636 1-441 isoform P10636-8): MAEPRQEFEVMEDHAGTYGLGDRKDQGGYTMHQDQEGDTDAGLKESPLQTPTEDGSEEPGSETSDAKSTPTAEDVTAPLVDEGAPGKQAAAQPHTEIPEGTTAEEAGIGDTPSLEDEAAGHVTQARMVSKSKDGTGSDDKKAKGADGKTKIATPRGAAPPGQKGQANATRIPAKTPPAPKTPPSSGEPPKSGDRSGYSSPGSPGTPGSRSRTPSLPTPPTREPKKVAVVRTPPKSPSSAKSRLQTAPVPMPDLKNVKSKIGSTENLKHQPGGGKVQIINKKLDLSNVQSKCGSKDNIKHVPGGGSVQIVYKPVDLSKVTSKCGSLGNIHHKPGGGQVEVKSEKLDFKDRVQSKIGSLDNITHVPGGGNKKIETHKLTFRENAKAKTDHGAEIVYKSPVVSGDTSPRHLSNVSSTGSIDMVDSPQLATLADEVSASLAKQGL

In the case of COC1CCCN(c2ccc(-c3cc4cc(O)ccc4[nH]3)c(F)n2)C1 (stereo not shown) [OXD-2314, 2-(2-fluoro-6-(3-methoxypiperidin-1-yl)pyridin-3-yl)-1H-indol-5-ol], the Ki [1] is reported as 5.8 ± 0.2 nM, the Ki [2] is reported as 4.8 ± 0.3 nM and the inhibition at 10 µM [3] is reported as 62.9%. It also gave an inhibition at 10 µM (MAO-B) of 37%.

For CO[C@H]1CCCN(c2ccc(-c3cc4cc(O)ccc4[nH]3)c([18F])n2)C1 [[^18F]OXD-2314], the “ratio initial maximum to late minimum brain radioactivity” value ([4]; rats) was ~ 8, the “whole brain radioactivity at end of acquisition” value ([4]; rats, end of the 120 min acquisition) was “below 0.3 SUV” and the “initial peak whole brain uptake (SUV)” value ([4]; wild-type rats, i.v., within two minutes, n = 2) was 2.3 SUV and > 2 SUV.
